Measured values taken from patent publication EP2961788B1, “NANOPARTICLES STABILIZED WITH NITROPHENYLBORONIC ACID COMPOSITIONS” (priority 2013, dated 2014).
Where two headings read alike, the source gives them in different places.

Test system: BT-474 xenograft tumors
Protocol: Treatments began on day 1. […] All treatments were freshly prepared and given via intravenous tail vein injection. Injections were standardized at 150 µl per 20 g body weight of mice. […] Tumor sizes were recorded three times a week using caliper measurements (length x width^2/2) and health of the animals was continuously monitored. Animals were euthanized when tumor volumes exceeded 1000 mm^3. Six weeks after beginning of the treatment, animals were euthanized by CO2 asphyxiation.

[1] = 80 mg/kg, once per week for 3 weeks
[2] = 8 mg/kg, once per week for 3 weeks

CCc1c2c(nc3ccc(OC(=O)N4CCC(N5CCCCC5)CC4)cc13)-c1cc3c(c(=O)n1C2)COC(=O)[C@]3(O)CC [Irinotecan]
NTRD (number of treatment related death) [1]: 1
Neuthan (number of animals euthanized due to exceeding tumor size limit of 1000 mm^3) [1]: 0
Nreg to zero [1]: 0
tumor inhibition compared to control group [1]: non-significant tumor inhibition

CC[C@@]1(O)C(=O)OCc2c1cc1n(c2=O)Cc2cc3ccccc3nc2-1 [CPT, Camptothecin]
Nend (number of animals surviving to end of study) (8 mg/kg (MAP-CPT: CPT basis), i.v. once per week for 3 weeks): 8/0
NTRD (number of treatment related death) [2]: 4
Nreg to zero [2]: 0
tumor inhibition compared to control group [2]: no tumor inhibition
